Reference: patent publication US20040176446A1, “Substituted amino dicarboxylic acid derivatives” (priority 2001, published 2004)

melting point [°C] | Compound
> 240 | O=C(O)CCCCN(CCc1cc(-c2ccc(F)cc2F)ccc1OCc1ccc(C2CCCCC2)cc1)Cc1ccc(C(=O)O)cc1 [Example 1, 4-{[(4-Carboxybutyl)(2-{4-[(4-cyclohexylbenzyl)oxy]-2′,4′-difluoro-1,1′-biphenyl-3-yl}ethyl)amino]methyl}benzoic acid]
> 240 | O=C(O)CCCCN(CCc1cc(-c2ccc(F)cc2F)ccc1OCc1ccc(-c2ccc(C(F)(F)F)cc2)cc1)Cc1ccc(C(=O)O)cc1 [Example 2, 4-({(4-Carboxybutyl)[2-(2′,4′-difluoro-4-{[4′-(trifluoromethyl)-1,1′-biphenyl-4-yl]methoxy}-1,1′-biphenyl-3-yl)ethyl]amino}methyl)benzoic acid]
